# Key:
# [1] = test system: prostate line LNCap; assay: In vitro cell culture growth assay (MTS), LNCap; format: cell-based; conditions: Homo sapiens, LNCaP, 72 h, LNCap cells, three days after drug treatment
# Method in brief: (§1)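 Growth is reported as percent of vehicle-treated control grown in the same plate, with viability determined by metabolic conversion of MTS dye and absorbance read at 490 nm. Compounds were applied one day after plating and left for three days.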
# [2] = test system: breast line MDA468; assay: In vitro cell culture growth assay (MTS), MDA468; format: cell-based; conditions: Homo sapiens, 72 h, MDA468 cells, three days after drug treatment
# Method in brief: as §1
# [3] = biological target: T1, PI3K (Homo sapiens, UniProt P48736); assay: Fluorescence polarization assay for PI3K; format: biochemical; conditions: PI3 Kinase γ isoform, fluorescence polarization; read-out: PI3 Kinase γ IC50
# T1 construct: PI3 Kinase γ IC50; other: PI3 Kinase γ; other: PI3 Kinase γ isoform, fluorescence polarization
# T1 sequence (P48736 whole entry, canonical isoform): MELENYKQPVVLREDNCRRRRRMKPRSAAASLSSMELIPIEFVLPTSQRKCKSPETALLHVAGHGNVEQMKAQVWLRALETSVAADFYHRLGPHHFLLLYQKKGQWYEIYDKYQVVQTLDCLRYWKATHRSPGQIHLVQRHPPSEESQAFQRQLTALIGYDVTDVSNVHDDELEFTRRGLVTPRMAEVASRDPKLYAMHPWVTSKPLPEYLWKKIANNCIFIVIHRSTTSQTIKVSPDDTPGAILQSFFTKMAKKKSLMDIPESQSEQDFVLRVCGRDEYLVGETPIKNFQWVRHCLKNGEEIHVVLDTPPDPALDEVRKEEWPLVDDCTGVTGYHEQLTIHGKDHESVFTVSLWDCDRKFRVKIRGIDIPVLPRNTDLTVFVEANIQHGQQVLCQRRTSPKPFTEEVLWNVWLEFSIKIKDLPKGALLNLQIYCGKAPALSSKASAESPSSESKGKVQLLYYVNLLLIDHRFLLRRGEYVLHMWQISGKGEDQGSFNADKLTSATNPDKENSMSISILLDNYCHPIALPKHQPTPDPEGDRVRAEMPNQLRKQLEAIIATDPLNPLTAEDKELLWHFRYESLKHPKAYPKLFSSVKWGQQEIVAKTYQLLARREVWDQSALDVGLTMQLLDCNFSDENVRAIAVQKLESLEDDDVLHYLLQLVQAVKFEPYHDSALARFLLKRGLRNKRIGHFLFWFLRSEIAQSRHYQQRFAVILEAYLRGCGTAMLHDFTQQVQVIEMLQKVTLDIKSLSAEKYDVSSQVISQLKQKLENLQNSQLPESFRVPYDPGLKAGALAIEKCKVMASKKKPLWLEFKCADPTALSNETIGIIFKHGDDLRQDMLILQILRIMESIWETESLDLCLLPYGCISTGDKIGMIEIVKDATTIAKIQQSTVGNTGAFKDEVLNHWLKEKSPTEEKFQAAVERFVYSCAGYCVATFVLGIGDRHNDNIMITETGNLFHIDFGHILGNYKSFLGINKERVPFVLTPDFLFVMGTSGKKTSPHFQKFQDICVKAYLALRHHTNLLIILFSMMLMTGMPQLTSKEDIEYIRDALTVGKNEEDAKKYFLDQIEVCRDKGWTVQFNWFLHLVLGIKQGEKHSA
# Method in brief: (§2)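 PI3K was preincubated with compound (final DMSO 1%), and the reaction was started with PIP2/ATP substrate and run 30–60 min. It was stopped with a detector mix giving 10 nM red probe and 70 nM GST-GRP.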
# [4] = biological target: T2, PI3K (Homo sapiens, UniProt P42336); assay: Fluorescence polarization assay for PI3K; format: biochemical; conditions: PI3 Kinase α isoform, fluorescence polarization; read-out: PI3 Kinase α IC50
# T2 construct: PI3 Kinase α IC50; other: PI3 Kinase α; other: PI3 Kinase α isoform, fluorescence polarization
# T2 sequence (P42336 whole entry, canonical isoform): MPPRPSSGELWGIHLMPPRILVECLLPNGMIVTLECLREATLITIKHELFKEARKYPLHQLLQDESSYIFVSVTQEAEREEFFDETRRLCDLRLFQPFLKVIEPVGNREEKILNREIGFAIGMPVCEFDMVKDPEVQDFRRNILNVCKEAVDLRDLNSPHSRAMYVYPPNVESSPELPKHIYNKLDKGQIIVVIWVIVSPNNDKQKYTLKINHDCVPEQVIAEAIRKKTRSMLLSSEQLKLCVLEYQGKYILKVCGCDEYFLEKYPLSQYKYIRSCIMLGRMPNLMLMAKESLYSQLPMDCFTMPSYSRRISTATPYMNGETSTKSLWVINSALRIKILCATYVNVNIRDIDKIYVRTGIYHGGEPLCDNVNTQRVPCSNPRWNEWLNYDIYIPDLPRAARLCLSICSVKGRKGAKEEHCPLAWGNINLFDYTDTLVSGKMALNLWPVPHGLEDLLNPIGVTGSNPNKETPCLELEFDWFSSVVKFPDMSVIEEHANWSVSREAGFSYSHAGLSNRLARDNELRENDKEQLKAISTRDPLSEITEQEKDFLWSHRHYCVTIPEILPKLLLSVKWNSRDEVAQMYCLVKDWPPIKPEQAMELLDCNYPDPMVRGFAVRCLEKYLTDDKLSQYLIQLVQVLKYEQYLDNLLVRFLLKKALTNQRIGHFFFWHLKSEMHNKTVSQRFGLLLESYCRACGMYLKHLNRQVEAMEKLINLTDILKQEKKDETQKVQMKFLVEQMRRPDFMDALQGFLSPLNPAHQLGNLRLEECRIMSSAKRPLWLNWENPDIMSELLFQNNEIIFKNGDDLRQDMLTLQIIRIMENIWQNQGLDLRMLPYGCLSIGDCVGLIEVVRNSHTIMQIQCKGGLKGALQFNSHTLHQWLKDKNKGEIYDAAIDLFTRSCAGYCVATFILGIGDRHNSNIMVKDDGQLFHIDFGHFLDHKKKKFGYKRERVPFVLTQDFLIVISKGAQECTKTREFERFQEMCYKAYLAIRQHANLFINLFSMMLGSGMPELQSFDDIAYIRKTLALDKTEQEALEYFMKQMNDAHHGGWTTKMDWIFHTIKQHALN
# Method in brief: as §2
# [5] = biological target: T3, Human mTOR (FLAG-TOR) (Homo sapiens, UniProt P42345); assay: Human mTOR kinase assay with purified enzyme, DELFIA format; format: biochemical; conditions: purified human mTOR enzyme, DELFIA format
# T3 construct: FLAG
# Method in brief: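 Purified FLAG-mTOR in HEPES pH 7.4 buffer with 10 mM MnCl2 was preincubated with inhibitor and reacted 2 h at room temperature with His6-S6K substrate, then stopped with EDTA/EGTA. Phospho-T389 S6K detected by DELFIA with Eu-labelled antibody (40 ng/mL) after plate capture; inhibition computed from signal.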
IC50 [1] [nM],IC50 [3] [nM],IC50 [4] [nM],IC50 [5] [nM],SMILES,IC50 [2] [nM]
< 1,2670,336,0.385,"COC1CCC(n2ncc3c(N4CC5CCC(C4)O5)nc(-c4ccc(NC(=O)Nc5ccc(N6CCN(C)CC6)nc5)cc4)nc32)CC1 (centres unmarked) [Example 309, 1-{4-[1-(4-methoxycyclohexyl)-4-(8-oxa-3-azabicyclo[3.2.1]oct-3-yl)-1H-pyrazolo[3,4-d]pyrimidin-6-yl]phenyl}-3-[6-(4-methylpiperazin-1-yl)pyridin-3-yl]urea]",2
< 1,> 10000,77,0.255,"O=C(Nc1ccc(-c2nc(N3CC4CCC(C3)O4)c3cnn(CC(F)(F)F)c3n2)cc1)Nc1ccc(N2CCNCC2)cc1 [Example 317, 1-{4-[4-(8-oxa-3-azabicyclo[3.2.1]oct-3-yl)-1-(2,2,2-trifluoroethyl)-1H-pyrazolo[3,4-d]pyrimidin-6-yl]phenyl}-3-(4-piperazin-1-ylphenyl)urea]",1
240,> 10000,628,13.5,"CNC(=O)Nc1ccc(-c2nc(N3CC4CCC(C3)O4)c3cnn(C(COC)COC)c3n2)cc1 [Example 319, 1-(4-{1-[2-methoxy-1-(methoxymethyl)ethyl]-4-(8-oxa-3-azabicyclo[3.2.1]oct-3-yl)-1H-pyrazolo[3,4-d]pyrimidin-6-yl}phenyl)-3-methylurea]",900
2,4980,601,1.6,"COCC(COC)n1ncc2c(N3CC4CCC(C3)O4)nc(-c3ccc(NC(=O)Nc4ccncc4)cc3)nc21 [Example 325, 1-(4-{1-[2-methoxy-1-(methoxymethyl)ethyl]-4-(8-oxa-3-azabicyclo[3.2.1]oct-3-yl)-1H-pyrazolo[3,4-d]pyrimidin-6-yl}phenyl)-3-pyridin-4-ylurea]",19
3,3490,764,3.75,"COCC(COC)n1ncc2c(N3CC4CCC(C3)O4)nc(-c3ccc(NC(=O)Nc4ccc(N5CCN(C)CC5)cc4)cc3)nc21 [Example 327, 1-(4-{1-[2-methoxy-1-(methoxymethyl)ethyl]-4-(8-oxa-3-azabicyclo[3.2.1]oct-3-yl)-1H-pyrazolo[3,4-d]pyrimidin-6-yl}phenyl)-3-[4-(4-methylpiperazin-1-yl)phenyl]urea]",50
2350,> 10000,5770,125,"COCC(COC)n1ncc2c(N3CC4CCC(C3)O4)nc(-c3ccc(NC(=O)OC)cc3)nc21 [Example 328, methyl (4-{1-[2-methoxy-1-(methoxymethyl)ethyl]-4-(8-oxa-3-azabicyclo[3.2.1]oct-3-yl)-1H-pyrazolo[3,4-d]pyrimidin-6-yl}phenyl)carbamate]",9200
380,5320,606,8.05,"CNC(=O)Nc1ccc(-c2nc(N3CC4CCC(C3)O4)c3cnn(C4CCC(N5CCCC5)CC4)c3n2)cc1 (centres unmarked) [Example 331, 1-methyl-3-{4-[4-(8-oxa-3-azabicyclo[3.2.1]oct-3-yl)-1-(4-pyrrolidin-1-ylcyclohexyl)-1H-pyrazolo[3,4-d]pyrimidin-6-yl]phenyl}urea]",1200
370,2760,351,2.45,"O=C(Nc1ccc(-c2nc(N3CC4CCC(C3)O4)c3cnn(C4CCC(N5CCCC5)CC4)c3n2)cc1)Nc1cccnc1 (centres unmarked) [Example 332, 1-{4-[4-(8-oxa-3-azabicyclo[3.2.1]oct-3-yl)-1-(4-pyrrolidin-1-ylcyclohexyl)-1H-pyrazolo[3,4-d]pyrimidin-6-yl]phenyl}-3-pyridin-3-ylurea]",900

# More lines, now with the values behind:
SMILES,IC50 [1] [nM],IC50 [3] [nM],IC50 [4] [nM],IC50 [5] [nM],IC50 [2] [nM]
"COC1CCC(n2ncc3c(N4CC5CCC(C4)O5)nc(-c4ccc(NC(=O)Nc5ccc(CO)cc5)cc4)nc32)CC1 (centres unmarked) [Example 308, 1-[4-(hydroxymethyl)phenyl]-3-{4-[1-(4-methoxycyclohexyl)-4-(8-oxa-3-azabicyclo[3.2.1]oct-3-yl)-1H-pyrazolo[3,4-d]pyrimidin-6-yl]phenyl}urea]",< 1,2720,80,0.08,< 1
"COC1CCC(n2ncc3c(N4CC5CCC(C4)O5)nc(-c4ccc(NC(=O)Nc5ccc(OCCN(C)C)cc5)cc4)nc32)CC1 (centres unmarked) [Example 310, 1-{4-[2-(dimethylamino)ethoxy]phenyl}-3-{4-[1-(4-methoxycyclohexyl)-4-(8-oxa-3-azabicyclo[3.2.1]oct-3-yl)-1H-pyrazolo[3,4-d]pyrimidin-6-yl]phenyl}urea]",< 1,2430,221,0.495,1
"COC1CCC(n2ncc3c(N4CC5CCC(C4)O5)nc(-c4ccc(NC(=O)OCCO)cc4)nc32)CC1 (centres unmarked) [Example 311, 2-hydroxyethyl {4-[1-(4-methoxycyclohexyl)-4-(8-oxa-3-azabicyclo[3.2.1]oct-3-yl)-1H-pyrazolo[3,4-d]pyrimidin-6-yl]phenyl}carbamate]",2,> 10000,3840,0.86,120
"O=C(Nc1ccc(-c2nc(N3C4CCC3COC4)c3cnn(CC(F)(F)F)c3n2)cc1)Nc1ccc(N2CCNCC2)cc1 [Example 318, 1-{4-[4-(3-oxa-8-azabicyclo[3.2.1]oct-8-yl)-1-(2,2,2-trifluoroethyl)-1H-pyrazolo[3,4-d]pyrimidin-6-yl]phenyl}-3-(4-piperazin-1-ylphenyl)urea]",< 1,2270,173,0.19,1
"CCNC(=O)Nc1ccc(-c2nc(N3CC4CCC(C3)O4)c3cnn(C(COC)COC)c3n2)cc1 [Example 320, 1-ethyl-3-(4-{1-[2-methoxy-1-(methoxymethyl)ethyl]-4-(8-oxa-3-azabicyclo[3.2.1]oct-3-yl)-1H-pyrazolo[3,4-d]pyrimidin-6-yl}phenyl)urea]",160,> 10000,1950,9.1,590
"COCC(COC)n1ncc2c(N3CC4CCC(C3)O4)nc(-c3ccc(NC(=O)NC4CC4)cc3)nc21 [Example 321, 1-cyclopropyl-3-(4-{1-[2-methoxy-1-(methoxymethyl)ethyl]-4-(8-oxa-3-azabicyclo[3.2.1]oct-3-yl)-1H-pyrazolo[3,4-d]pyrimidin-6-yl}phenyl)urea]",170,> 10000,3810,10.4,1050
"COCC(COC)n1ncc2c(N3CC4CCC(C3)O4)nc(-c3ccc(NC(=O)NCCO)cc3)nc21 [Example 322, 1-(2-hydroxyethyl)-3-(4-{1-[2-methoxy-1-(methoxymethyl)ethyl]-4-(8-oxa-3-azabicyclo[3.2.1]oct-3-yl)-1H-pyrazolo[3,4-d]pyrimidin-6-yl}phenyl)urea]",1000,> 10000,1250,6.45,2800
"COCC(COC)n1ncc2c(N3CC4CCC(C3)O4)nc(-c3ccc(NC(=O)OCCO)cc3)nc21 [Example 323, 2-hydroxyethyl (4-{1-[2-methoxy-1-(methoxymethyl)ethyl]-4-(8-oxa-3-azabicyclo[3.2.1]oct-3-yl)-1H-pyrazolo[3,4-d]pyrimidin-6-yl}phenyl)carbamate]",470,> 10000,6620,16.5,2000
"COCC(COC)n1ncc2c(N3CC4CCC(C3)O4)nc(-c3ccc(NC(=O)Nc4ccccc4)cc3)nc21 [Example 324, 1-(4-{1-[2-methoxy-1-(methoxymethyl)ethyl]-4-(8-oxa-3-azabicyclo[3.2.1]oct-3-yl)-1H-pyrazolo[3,4-d]pyrimidin-6-yl}phenyl)-3-phenylurea]",8,5200,382,3.4,58
"COCC(COC)n1ncc2c(N3CC4CCC(C3)O4)nc(-c3ccc(NC(=O)Nc4cccnc4)cc3)nc21 [Example 326, 1-(4-{1-[2-methoxy-1-(methoxymethyl)ethyl]-4-(8-oxa-3-azabicyclo[3.2.1]oct-3-yl)-1H-pyrazolo[3,4-d]pyrimidin-6-yl}phenyl)-3-pyridin-3-ylurea]",30,9530,1180,2.65,150
"CN1CCN(C2CCC(n3ncc4c(N5CC6CCC(C5)O6)nc(-c5ccc(NC(=O)Nc6cccnc6)cc5)nc43)CC2)CC1 (centres unmarked) [Example 330, 1-(4-{1-[4-(4-methylpiperazin-1-yl)cyclohexyl]-4-(8-oxa-3-azabicyclo[3.2.1]oct-3-yl)-1H-pyrazolo[3,4-d]pyrimidin-6-yl}phenyl)-3-pyridin-3-ylurea]",7,1850,238,0.405,60
